In ChEMBL document CHEMBL4507325 (2021):

Assays:
Conditions in all cases: Compound concentration 10.0 uM
[1] = biological target: 5-hydroxytryptamine receptor 1E (Homo sapiens) (UniProt P28566)
[2] = biological target: 5-hydroxytryptamine receptor 2A (Homo sapiens) (UniProt P28223)
[3] = biological target: 5-hydroxytryptamine receptor 5A (Homo sapiens) (UniProt P47898)
[4] = biological target: Beta-1 adrenergic receptor (Homo sapiens) (UniProt P08588)
[5] = biological target: GABA-A receptor; anion channel (Rattus norvegicus) (UniProt O09028+P15431+P18506+P18508+P19969+P20236+P23574+P23576+P28471+P28473+P30191+P62813+P63079+P63138+Q91ZM7+Q9ES14)
[6] = biological target: Alpha-1D adrenergic receptor (Homo sapiens) (UniProt P25100)
Sequence of Alpha-1D adrenergic receptor (Homo sapiens) (P25100 whole entry): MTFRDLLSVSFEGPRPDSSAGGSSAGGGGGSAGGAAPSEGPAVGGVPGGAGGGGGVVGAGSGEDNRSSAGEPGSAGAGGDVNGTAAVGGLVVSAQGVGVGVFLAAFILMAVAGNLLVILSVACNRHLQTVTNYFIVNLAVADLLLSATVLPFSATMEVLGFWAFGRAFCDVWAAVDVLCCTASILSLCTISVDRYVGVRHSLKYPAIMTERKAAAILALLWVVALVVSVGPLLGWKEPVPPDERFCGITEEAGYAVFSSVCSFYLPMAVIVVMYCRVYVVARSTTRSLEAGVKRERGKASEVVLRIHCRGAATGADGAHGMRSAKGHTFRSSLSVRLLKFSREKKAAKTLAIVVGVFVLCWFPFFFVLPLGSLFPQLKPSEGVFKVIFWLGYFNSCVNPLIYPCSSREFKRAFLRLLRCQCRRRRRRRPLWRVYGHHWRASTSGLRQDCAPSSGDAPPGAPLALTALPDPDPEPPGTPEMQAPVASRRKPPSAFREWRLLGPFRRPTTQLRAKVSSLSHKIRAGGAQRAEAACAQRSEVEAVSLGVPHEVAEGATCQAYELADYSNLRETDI

[7] = biological target: Delta-type opioid receptor (Homo sapiens) (UniProt P41143)
Sequence of Delta-type opioid receptor (Homo sapiens) (P41143 whole entry): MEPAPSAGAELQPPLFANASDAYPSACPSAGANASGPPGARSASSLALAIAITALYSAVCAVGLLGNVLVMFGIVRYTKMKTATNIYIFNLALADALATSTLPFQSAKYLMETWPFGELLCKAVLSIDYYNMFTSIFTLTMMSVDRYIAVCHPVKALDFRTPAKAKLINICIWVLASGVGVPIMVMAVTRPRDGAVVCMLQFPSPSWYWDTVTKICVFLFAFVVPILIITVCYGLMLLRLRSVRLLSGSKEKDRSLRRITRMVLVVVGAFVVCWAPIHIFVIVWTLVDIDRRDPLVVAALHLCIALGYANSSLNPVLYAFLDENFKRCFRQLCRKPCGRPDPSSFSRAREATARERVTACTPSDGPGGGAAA

[8] = biological target: Mu-type opioid receptor (Homo sapiens) (UniProt P35372)
Sequence of Mu-type opioid receptor (Homo sapiens) (P35372 whole entry): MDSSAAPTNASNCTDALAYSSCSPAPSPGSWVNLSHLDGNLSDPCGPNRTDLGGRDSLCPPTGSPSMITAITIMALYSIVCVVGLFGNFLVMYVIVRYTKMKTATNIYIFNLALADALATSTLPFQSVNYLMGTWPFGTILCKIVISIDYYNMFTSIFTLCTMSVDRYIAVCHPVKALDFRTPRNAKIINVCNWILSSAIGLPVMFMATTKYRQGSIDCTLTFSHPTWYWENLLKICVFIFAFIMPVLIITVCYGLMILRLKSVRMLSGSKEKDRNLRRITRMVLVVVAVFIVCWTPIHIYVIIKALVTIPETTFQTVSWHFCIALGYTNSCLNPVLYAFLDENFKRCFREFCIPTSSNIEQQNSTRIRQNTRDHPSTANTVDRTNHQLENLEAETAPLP

Sequence of Beta-1 adrenergic receptor (Homo sapiens) (P08588 whole entry, looked up): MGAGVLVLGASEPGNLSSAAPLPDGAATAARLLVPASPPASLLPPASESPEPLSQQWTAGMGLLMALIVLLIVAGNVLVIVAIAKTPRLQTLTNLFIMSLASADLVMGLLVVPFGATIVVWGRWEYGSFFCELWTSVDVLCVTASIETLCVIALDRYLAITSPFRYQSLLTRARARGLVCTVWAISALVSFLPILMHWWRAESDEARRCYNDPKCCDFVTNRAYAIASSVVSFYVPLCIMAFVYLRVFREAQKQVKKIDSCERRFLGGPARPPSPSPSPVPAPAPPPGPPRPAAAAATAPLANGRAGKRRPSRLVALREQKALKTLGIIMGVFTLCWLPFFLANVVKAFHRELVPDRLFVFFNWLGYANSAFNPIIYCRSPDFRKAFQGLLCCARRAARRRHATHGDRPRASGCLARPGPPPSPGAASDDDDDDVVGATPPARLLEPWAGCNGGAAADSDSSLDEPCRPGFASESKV
Sequence of 5-hydroxytryptamine receptor 1E (Homo sapiens) (P28566 whole entry): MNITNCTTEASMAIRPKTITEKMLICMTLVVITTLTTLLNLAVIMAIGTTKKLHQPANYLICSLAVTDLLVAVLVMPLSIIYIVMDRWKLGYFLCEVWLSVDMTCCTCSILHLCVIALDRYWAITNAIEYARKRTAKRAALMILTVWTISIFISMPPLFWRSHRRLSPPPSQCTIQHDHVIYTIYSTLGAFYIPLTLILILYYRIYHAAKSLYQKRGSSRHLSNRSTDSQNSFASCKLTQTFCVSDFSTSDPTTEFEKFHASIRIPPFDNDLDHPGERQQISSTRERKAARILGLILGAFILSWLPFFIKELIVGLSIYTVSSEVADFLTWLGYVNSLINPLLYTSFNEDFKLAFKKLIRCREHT
Sequence of 5-hydroxytryptamine receptor 5A (Homo sapiens) (P47898 whole entry): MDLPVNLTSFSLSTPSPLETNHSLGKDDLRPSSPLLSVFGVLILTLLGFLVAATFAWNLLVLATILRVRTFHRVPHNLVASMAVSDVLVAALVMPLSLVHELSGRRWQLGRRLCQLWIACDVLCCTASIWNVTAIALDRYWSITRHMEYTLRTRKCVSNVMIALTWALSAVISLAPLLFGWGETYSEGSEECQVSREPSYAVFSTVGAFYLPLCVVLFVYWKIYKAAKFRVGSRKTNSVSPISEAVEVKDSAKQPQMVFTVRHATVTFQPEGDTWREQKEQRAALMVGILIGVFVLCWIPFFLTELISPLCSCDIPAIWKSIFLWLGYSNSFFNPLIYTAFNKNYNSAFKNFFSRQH
Sequence of 5-hydroxytryptamine receptor 2A (Homo sapiens) (P28223 whole entry): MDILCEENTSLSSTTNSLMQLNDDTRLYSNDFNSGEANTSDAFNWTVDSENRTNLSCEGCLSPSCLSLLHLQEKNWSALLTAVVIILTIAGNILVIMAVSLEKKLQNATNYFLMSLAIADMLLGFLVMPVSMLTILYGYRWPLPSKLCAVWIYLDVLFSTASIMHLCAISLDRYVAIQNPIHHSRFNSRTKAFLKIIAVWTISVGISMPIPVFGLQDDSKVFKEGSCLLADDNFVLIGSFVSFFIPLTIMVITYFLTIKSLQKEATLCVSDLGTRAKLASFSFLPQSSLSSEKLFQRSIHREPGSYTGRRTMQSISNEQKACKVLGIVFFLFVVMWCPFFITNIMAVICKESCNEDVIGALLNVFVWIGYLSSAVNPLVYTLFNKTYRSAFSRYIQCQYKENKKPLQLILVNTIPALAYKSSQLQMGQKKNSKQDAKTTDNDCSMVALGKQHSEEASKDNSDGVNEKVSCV

inhibition [1]: 4.31% | inhibition [2]: -2.88% | inhibition [3]: 5.61% | inhibition [4]: -5.52% | inhibition [5]: 16.3% | inhibition [6]: -5.48% | inhibition [7]: -3% | inhibition [8]: 0%
SMILES: Cc1ccccc1Oc1cc(-n2c(=O)cc(C(F)(F)F)[nH]c2=O)c2ccccc2c1Cl [BAY-069]
